Where two headings read alike, the source gives them in different places.
Experiments:
[1] = target: Rhesus PDE2A3 (Macaca mulatta, UniProt B3VTJ2); experiment: PDE2 fluorescence polarization (IMAP FP) inhibition assay, rhesus PDE2A3; assay type: biochemical, rhesus macaque
Procedure: A Labcyte Echo 555 (Labcyte, Sunnyvale, Calif.) is used to dispense 200 nL from each well of the titration plate to the 384 well assay plate. Ten microliters of a solution of enzyme (1/2000 final dilution from aliquots; sufficient to produce 20% substrate conversion) was added to the assay plate. Next 10 uL of a separate solution of the substrate FAM-labeled cAMP (50 nM final concentration product # R^7506 from Molecular Devices) and the activator cGMP (1 uM final concentration), prepared in the assay buffer (10 mM Tris HCl, pH 7.2, 10 mM MgCl2, 0.05% NaN3 0.01% Tween-20, and 1 mM DTT) was added to the assay plate and shaken to mix. The reaction is allowed to proceed at room temperature for 60 minutes. A binding solution is then made from the kit components, comprised of 80% Solution A, 20% Solution B and binding reagent at a volume of 1/600 the total binding solution. The enzymatic reaction is stopped by addition of 60 μL of the binding solution to each well of the assay plates and the plates are sealed and shaken for 30 seconds. The plate was incubated at room temperature for at least one hour prior to determining the fluorescence polarization (FP). The parallel and perpendicular fluorescence of each well of the plate was measured using a Tecan Genios Pro plate reader (Tecan, Switzerland) or Perkin Elmer EnVision™ plate reader (Waltham, Mass.). Fluorescence polarization (mP) was calculated from the parallel (S) and perpendicular (P) fluorescence of each sample well and the analogous values for the median control well, containing only substrate (So and Po), using the following equation: Polarization (mP)=1000*(S/So−P/Po)/(S/So+P/Po).
Dose-inhibition profiles for each compound were characterized by fitting the mP data to a four-parameter equation given below.
An apparent (KM) for FAM-labeled cAMP of ˜10 uM was used.

[2] = target: human PDE2A1 (Homo sapiens (Human), UniProt O00408); experiment: PDE2 IMAP FP inhibition assay, human PDE2A1 (selectivity panel format); assay type: biochemical
human PDE2A1, sequence (O00408 other isoform, or with tags, fused parts or gaps): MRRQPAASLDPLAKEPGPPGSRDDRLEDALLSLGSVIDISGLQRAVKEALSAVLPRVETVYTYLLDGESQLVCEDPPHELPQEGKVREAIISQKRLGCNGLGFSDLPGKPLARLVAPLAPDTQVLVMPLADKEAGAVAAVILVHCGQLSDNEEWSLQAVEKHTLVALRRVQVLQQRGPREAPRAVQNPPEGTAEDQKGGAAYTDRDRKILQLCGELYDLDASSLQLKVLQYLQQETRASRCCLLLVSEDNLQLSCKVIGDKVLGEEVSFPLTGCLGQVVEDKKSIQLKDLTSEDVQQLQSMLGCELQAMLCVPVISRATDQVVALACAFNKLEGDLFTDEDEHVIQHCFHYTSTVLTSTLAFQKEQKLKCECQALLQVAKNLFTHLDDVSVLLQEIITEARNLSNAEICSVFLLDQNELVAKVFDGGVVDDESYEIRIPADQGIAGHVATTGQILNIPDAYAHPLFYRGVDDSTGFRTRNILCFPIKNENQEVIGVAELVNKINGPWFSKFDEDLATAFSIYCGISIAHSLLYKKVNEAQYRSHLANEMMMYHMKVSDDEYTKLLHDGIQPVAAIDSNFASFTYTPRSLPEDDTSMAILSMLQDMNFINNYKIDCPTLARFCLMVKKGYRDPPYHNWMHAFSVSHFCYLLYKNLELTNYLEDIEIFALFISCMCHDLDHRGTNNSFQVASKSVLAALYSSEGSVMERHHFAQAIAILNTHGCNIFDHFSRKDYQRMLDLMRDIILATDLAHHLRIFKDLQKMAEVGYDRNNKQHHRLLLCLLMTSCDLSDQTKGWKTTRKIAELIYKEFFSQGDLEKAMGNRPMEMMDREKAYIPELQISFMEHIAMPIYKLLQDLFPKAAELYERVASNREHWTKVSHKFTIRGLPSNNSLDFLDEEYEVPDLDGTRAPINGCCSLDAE
Procedure, shortened: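 IMAP fluorescence polarization assay; substrate 50 nM FAM-cAMP with 1000 nM cGMP, enzyme at ~20% conversion, in 10 mM Tris pH 7.2, 10 mM MgCl2, 1 mM DTT, 0.01% Tween-20. 60 min room temperature, stopped with IMAP binding reagent, 1 h, then parallel/perpendicular fluorescence read.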

[3] = Lab B, read-out: Rhesus PDE2 Ki (nM) - Lab B
[4] = Lab B, read-out: Human PDE2 Ki (nM) - Lab B
[5] = Lab A, read-out: Rhesus PDE2 Ki (nM) - Lab A
[6] = Lab A, read-out: Human PDE2 Ki (nM) - Lab A

Rhesus PDE2A3, sequence (B3VTJ2 1-941): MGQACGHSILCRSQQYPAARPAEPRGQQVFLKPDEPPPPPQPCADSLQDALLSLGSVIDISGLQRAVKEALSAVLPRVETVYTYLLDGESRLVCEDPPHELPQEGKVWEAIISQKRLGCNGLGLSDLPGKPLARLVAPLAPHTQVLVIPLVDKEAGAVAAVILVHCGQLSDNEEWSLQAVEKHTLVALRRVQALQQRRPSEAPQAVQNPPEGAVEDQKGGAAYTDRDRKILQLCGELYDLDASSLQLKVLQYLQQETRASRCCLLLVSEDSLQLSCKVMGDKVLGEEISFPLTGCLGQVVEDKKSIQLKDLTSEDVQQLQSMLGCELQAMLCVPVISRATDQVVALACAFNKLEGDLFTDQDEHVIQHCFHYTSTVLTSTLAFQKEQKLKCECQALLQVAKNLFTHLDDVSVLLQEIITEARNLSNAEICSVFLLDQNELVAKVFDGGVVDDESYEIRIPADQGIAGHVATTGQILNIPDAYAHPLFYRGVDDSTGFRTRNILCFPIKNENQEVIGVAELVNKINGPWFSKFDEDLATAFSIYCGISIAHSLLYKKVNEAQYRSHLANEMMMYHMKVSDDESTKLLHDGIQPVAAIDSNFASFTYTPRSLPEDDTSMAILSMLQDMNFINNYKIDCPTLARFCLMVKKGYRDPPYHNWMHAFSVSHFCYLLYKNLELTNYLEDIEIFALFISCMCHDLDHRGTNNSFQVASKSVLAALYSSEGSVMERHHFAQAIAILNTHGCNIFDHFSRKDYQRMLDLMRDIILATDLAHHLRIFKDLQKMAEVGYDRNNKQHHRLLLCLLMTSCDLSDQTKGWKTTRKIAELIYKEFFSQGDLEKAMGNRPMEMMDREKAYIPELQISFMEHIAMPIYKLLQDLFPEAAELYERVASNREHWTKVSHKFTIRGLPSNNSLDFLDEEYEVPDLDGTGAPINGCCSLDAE

SMILES	Ki [1, 3] [nM]	Ki [2, 4] [nM]	Ki [1, 5] [nM]	Ki [2, 6] [nM]	Ki ([1]; Rhesus PDE2 Ki (nM) - Lab B, Lab B) [nM]
CN(C)c1nc(C(=O)NC(c2ccc(C3(C)CC3)c(F)c2)C(C)(C)C)cc(=O)[nH]1 (single isomer, unassigned) [Example 124, (R)- or (S)-2-(dimethylamino)-N-{1-[3-fluoro-4-(1-methylcyclopropyl)phenyl]-2,2-dimethylpropyl}-6-oxo-1,6-dihydropyrimidine-4-carboxamide]	0.45	0.34	–	–	–
C[C@@H](NC(=O)c1cc(=O)[nH]c(N(C)C)n1)c1ccc(OC(F)(F)F)c(Cl)c1 [Example 3, (R)—N-(1-(3-chloro-4-(trifluoromethoxy)phenyl)ethyl)-2-(dimethylamino)-6-oxo-1,6-dihydropyrimidine-4-carboxamide]	1.5	1.6	0.82	–	–
C[C@@H](NC(=O)c1cc(=O)[nH]c(N2CC[C@@H](F)C2)n1)c1ccc(C(F)(F)F)cc1 [Example 11, 2-((R)-3-fluoropyrrolidin-1-yl)-6-oxo-N—((R)-1-(4-(trifluoromethyl)phenyl)ethyl)-1,6-dihydropyrimidine-4-carboxamide]	–	–	30	18	–
COCC1CCN(c2nc(C(=O)N[C@@H](c3ccc(C(F)(F)F)cc3)C(C)(C)C)cc(=O)[nH]2)C1 (stereo partly drawn) [Example 14, N—((R)-2,2-dimethyl-1-(4-(trifluoromethyl)phen)propyl)-2-(3-(methoxymethyl)pyrrolidin-1-yl)-6-oxo-1,6-dihydropyrimidine-4-carboxamide]	–	0.34	–	–	0.41
CSc1nc(C(=O)N[C@H](C)c2ccc(C(F)(F)F)cc2)cc(=O)[nH]1 [Example 15, (R)-2-(methylthio)-6-oxo-N-(1-(4-(trifluoromethyl)phenyl)ethyl)-1,6-dihydropyrimidine-4-carboxamide]	–	–	46	31	–
COc1nc(C(=O)N[C@H](C)c2ccc(C(F)(F)F)cc2)cc(=O)[nH]1 [Example 17, (R)-2-methoxy-6-oxo-N-(1-(4-(trifluoromethyl)phenyl)ethyl)-1,6-dihydropyrimidine-4-carboxamide]	–	–	130	115	–
CCOc1nc(C(=O)N[C@H](C)c2ccc(C(F)(F)F)cc2)cc(=O)[nH]1 [Example 18, (R)-2-ethoxy-6-oxo-N-(1-(4-(trifluoromethyl)phenyl)ethyl)-1,6-dihydropyrimidine-4-carboxamide]	–	–	63	72	–
COc1ccc(Oc2nc(C(=O)N[C@H](C)c3ccc(C(F)(F)F)cc3)cc(=O)[nH]2)cc1OC [Example 22, (R)-2-(3,4-dimethoxyphenoxy)-6-oxo-N-(1-(4-(trifluoromethyl)phenyl)ethyl)-1,6-dihydropyrimidine-4-carboxamide]	–	–	727	988	–
C[C@@H](NC(=O)c1cc(=O)[nH]c(N2CC(F)(F)C2)n1)c1ccc(C(F)(F)F)cc1 [Example 24, 2-(3,3-Difluoroazetidin-1-yl)-6-oxo-N-{(1R)-1-[4-(trifluoromethyl)phenyl]ethyl}-1,6-dihydropyrimidine-4-carboxamide]	–	–	79	40	–
O=C(N[C@@H](c1ccc(OC(F)(F)F)c(F)c1)C1CC1)c1cc(=O)[nH]c(N2CCCC2)n1 [Example 25, N-{(R)-cyclopropyl[3-fluoro-4-(trifluoromethoxy)phenyl]methyl}-6-oxo-2-pyrrolidin-1-yl-1,6-dihydropyrimidine-4-carboxamide]	–	–	0.85	0.37	–
C[C@@H](NC(=O)c1cc(=O)[nH]c(N2CCCC2)n1)c1ccc(OC(F)(F)F)cc1 [Example 28, 6-oxo-2-pyrrolidin-1-yl-N-{(1R)-1-[4-(trifluoromethoxy)phenyl]ethyl}-1,6-dihydropyrimidine-4-carboxamide]	–	–	1.3	0.45	–
CC[C@@H](NC(=O)c1cc(=O)[nH]c(N2CCCC2)n1)c1ccc(SC(F)(F)F)c(F)c1 [Example 29, N-[(1R)-1-{3-fluoro-4-[(trifluoromethyl)sulfanyl]phenyl}propyl]-6-oxo-2-pyrrolidin-1-yl-1,6-dihydropyrimidine-4-carboxamide]	–	–	0.56	0.22	–
C[C@@H](NC(=O)c1cc(=O)[nH]c(N(C)C)n1)c1cc(F)c(C(F)(F)F)cc1F [Example 36, N-{(1R)-1-[2,5-difluoro-4-(trifluoromethyl)phenyl]ethyl}-2-(dimethylamino)-6-oxo-1,6-dihydropyrimidine-4-carboxamide]	4.9	7.7	–	–	–
CC(C)C(C)(NC(=O)c1cc(=O)[nH]c(N(C)C)n1)c1ccc(S(F)(F)(F)(F)F)cc1 (stereo not drawn) [Example 39, 2-(dimethylamino)-N-{1,2-dimethyl-1-[4-(pentafluoro-λ^6-sulfanyl)phenyl]propyl}-6-oxo-1,6-dihydropyrimidine-4-carboxamide]	8.7	12	–	–	–
CN(C)c1nc(C(=O)NC2(c3ccc(C(C)(C)C)cc3)CC2)cc(=O)[nH]1 [Example 46, N-[1-(4-tert-butylphenyl)cyclopropyl]-2-(dimethylamino)-6-oxo-1,6-dihydropyrimidine-4-carboxamide]	3.4	3.6	–	–	–
Cc1cc(C(F)(F)F)ccc1C(C)(C)NC(=O)c1cc(=O)[nH]c(N(C)C)n1 [Example 78, 2-(dimethylamino)-N-{1-methyl-1-[2-methyl-4-(trifluoromethyl)phenyl]ethyl}-6-oxo-1,6-dihydropyrimidine-4-carboxamide]	2.3	2.2	–	–	–
CN(C)c1nc(C(=O)NC(C)(C)c2ccc(C(F)(F)F)cc2F)cc(=O)[nH]1 [Example 82, 2-(dimethylamino)-N-{1-[2-fluoro-4-(trifluoromethyl)phenyl]-1-methylethyl}-6-oxo-1,6-dihydropyrimidine-4-carboxamide]	2	2.5	–	–	–
C[C@@H](NC(=O)c1cc(=O)[nH]c(N(C)C)n1)c1ccc(OC(F)(F)F)cc1F [Example 83, 2-(dimethylamino)-N-{(1R)-1-[2-fluoro-4-(trifluoromethoxy)phenyl]ethyl}-6-oxo-1,6-dihydropyrimidine-4-carboxamide]	2.3	2.4	–	–	–
C[C@@H](NC(=O)c1cc(=O)[nH]c(N(C)C)n1)c1ccc(C(F)(F)F)c(F)c1F [Example 84, N-{(1R)-1-[2,3-difluoro-4-(trifluoromethyl)phenyl]ethyl}-2-(dimethylamino)-6-oxo-1,6-dihydropyrimidine-4-carboxamide]	3.5	2.5	–	–	–
CN(C)c1nc(C(=O)N[C@@H](c2ccc(OC(F)(F)F)c(Cl)c2)C2CC2)cc(=O)[nH]1 [Example 85, N-[(R)-[3-chloro-4-(trifluoromethoxy)phenyl](cyclopropyl)methyl]-2-(dimethylamino)-6-oxo-1,6-dihydropyrimidine-4-carboxamide]	4.9	3.6	2	–	–
CC(C)[C@@H](NC(=O)c1cc(=O)[nH]c(N(C)C)n1)c1ccc(OC(F)(F)F)c(Cl)c1 [Example 86, N-{(1R)-1-[3-chloro-4-(trifluoromethoxy)phenyl]-2-methylpropyl}-2-(dimethylamino)-6-oxo-1,6-dihydropyrimidine-4-carboxamide]	2.1	1.7	0.54	–	–
C[C@H](NC(=O)c1cc(=O)[nH]c(N(C)C)n1)c1ccc(S(F)(F)(F)(F)F)cc1F [Example 117, (S)-2-(dimethylamino)-N-(1-(4-(pentafluorothio)-2-fluorophenyl)ethyl)-6-oxo-1,6-dihydropy-rimidine-4-carboxamide]	2.5	2.1	–	–	–
CN(C)c1nc(C(=O)NC(C)(C)c2ccc(S(F)(F)(F)(F)F)cc2)cc(=O)[nH]1 [Example 118, 2-(Dimethylamino)-N-{1-methyl-1-[4-(pentafluoro-λ^6-sulfanyl)phenyl]ethyl}-6-oxo-1,6-dihydropyrimidine-4-carboxamide]	224	140	–	–	–
CC(NC(=O)c1cc(=O)[nH]c(OC2COC2)n1)c1ccc(C(F)(F)F)cc1 (stereo not drawn) [Example 192, 2-(oxetan-3-yloxy)-6-oxo-N-{1-[4-(trifluoromethyl)phenyl]ethyl}-1,6-dihydropyrimidine-4-carboxamide]	–	–	11500	–	–
CC(NC(=O)c1cc(=O)[nH]c(OC2CCOC2)n1)c1ccc(C(F)(F)F)cc1 (stereo not drawn) [Example 193, 6-oxo-2-(tetrahydrofuran-3-yloxy)-N-{1-[4-(trifluoromethyl)phenyl]ethyl}-1,6-dihydropyrimidine-4-carboxamide]	–	–	1060	–	–

— patent US10285989B2, “Pyrimidinone amide compounds as PDE2 inhibitors” (Merck Sharp & Dohme Corp., priority 2015, dated 2019)
